Data taken from patent US11578130B2, “Regulatable chimeric antigen receptor” (Novartis AG, priority 2013, dated 2023).
Where two headings read alike, the source gives them in different places.

Key:
Assay type in all cases: in vivo, human
[1] = system: A/H1N1/California/07/2009; test: Clinical trial: serum IgG and IgM specific for A/H1N1/California/07/2009; conditions: RAD001 versus placebo treated cohorts
Description: Levels of IgG and IgM specific for the A/H1N1/California/07/2009 were measured in serum samples taken before and 4 weeks after influenza vaccination as described previously (Spensieri, F. et al. (2013) Proc. Natl. Acad. Sci. USA 110:14330-14335). Results were expressed as fluorescence intensity.

[2] = system: A/H1N1 strain A/New Jersey/8/76
[3] = Clinical trial: energy and exercise questionnaires one year after dosing; conditions: 0.5 mg daily dosing cohort
[4] = system: PD-1 positive CD4 and CD8 T cells; test: Clinical trial: immunophenotyping of PBMC by flow cytometry
[5] = system: H1N1 A/California/07/2009; test: Clinical trial: hemagglutination inhibition titers and seroconversion, vaccine strain A/H1N1
Description: (§1) The trial was observer-blind because the placebo in the RAD001 0.5 mg daily and 20 mg weekly cohorts differed slightly from the RAD001 tablets in those cohorts. […] The treatment duration for all cohorts was 6 weeks during which time subjects underwent safety evaluations in the clinic every 2 weeks. After subjects had been dosed for 4 weeks, RAD001 steady state levels were measured pre-dose and at one hour post dose. After completing the 6 week course of study drug, subjects were given a 2 week drug free break to reverse any possible RAD001-induced immunosuppression, and then were given a 2012 seasonal influenza vaccination (Agrippal®, Novartis Vaccines and Diagnostics, Siena, Italy) containing the strains H1N1 A/California/07/2009, H3N2 A/Victoria/210/2009, B/Brisbane/60/2008. Four weeks after influenza vaccination, subjects had serum collected for influenza titer measurements. Antibody titers to the 3 influenza vaccine strains as well as to 2 heterologous strains (A/H1N1 strain A/New Jersey/8/76 and A/H3N2 strain A/Victoria/361/11) were measured by standard hemagglutination inhibition assay (Kendal, A P et al. (1982) Concepts and procedures for laboratory-based influenza surveillance. Atlanta: Centers for Disease Control and Prevention B17-B35).
(§2) The ability of RAD001 to improve immune function in elderly volunteers was evaluated by measuring the serologic response to the 2012 seasonal influenza vaccine. The hemagglutination inhibition (HI) geometric mean titers (GMT) to each of the 3 influenza vaccine strains at baseline and 4 weeks after influenza vaccination are provided in Table 22. The primary analysis variable was the HI GMT ratio (4 weeks post vaccination/baseline). […] This endpoint was chosen because a 1.2-fold increase in the influenza GMT ratio induced by the MF-59 vaccine adjuvant was associated with a decrease in influenza illness (Iob, A et al. (2005) Epidemiol Infect 133:687-693).
(§3) Rates of seroconversion 4 weeks after influenza vaccination were also evaluated. Seroconversion was defined as the change from a negative pre-vaccination titer (i.e., HI titer <1:10) to post-vaccination HI titer ≥1:40 or at least 4-fold increase from a non-negative (≥1:10) pre-vaccination HI titer.

[6] = system: H3N2 A/Victoria/210/2009; test: Clinical trial: hemagglutination inhibition titers and seroconversion, vaccine strain A/H3N2
Description: as §1, §2, §3

[7] = system: A/H3N2 strain A/Victoria/361/11; test: Clinical trial: HI titers and seroconversion, heterologous A/H3N2 strain
[8] = system: B/Brisbane/60/2008; test: Clinical trial: hemagglutination inhibition titers and seroconversion, vaccine strain B
Description: as §1, §2, §3

[9] = RAD001 as compared to placebo cohorts
[10] = Baseline (2 weeks prior to influenza vaccination), RAD001 0.5 mg daily, N = 50
[11] = Baseline (2 weeks prior to influenza vaccination), RAD001 5 mg weekly, N = 49
[12] = Baseline (2 weeks prior to influenza vaccination), RAD001 20 mg weekly, N = 49
[13] = Intention to Treat Population, 0.5 mg, N = 48
[14] = Intention to Treat Population, 5 mg, N = 49
[15] = Intention to Treat Population, 20 mg, N = 48
[16] = Subjects with Baseline Titers <=40, 0.5 mg
[17] = Subjects with Baseline Titers <=40, 5 mg
[18] = Subjects with Baseline Titers <=40, 20 mg
[19] = Week 4 after influenza vaccination, RAD001 0.5 mg daily, N = 50
[20] = Week 4 after influenza vaccination, RAD001 5 mg weekly, N = 49
[21] = Week 4 after influenza vaccination, RAD001 20 mg weekly, N = 49

CO[C@H]1C[C@@H]2CC[C@@H](C)[C@@](O)(O2)C(=O)C(=O)N2CCCC[C@H]2C(=O)O[C@H]([C@H](C)C[C@@H]2CC[C@@H](OCCO)[C@H](OC)C2)CC(=O)[C@H](C)/C=C(\C)[C@@H](O)[C@@H](OC)C(=O)[C@H](C)C[C@H](C)/C=C/C=C/C=C/1C [RAD001, (1R,9S,12S,15R,16E,18R,19R,21R,23S,24E,26E,28E,30S,32S,35R)-1,18-dihydroxy-12-{(1R)-2-[(1S,3R,4R)-4-(2-hydroxyethoxy)-3-methoxycyclohexyl]-1-methylethyl}-19,30-dimethoxy-15,17,21,23,29,35-hexamethyl-11,36-dioxa-4-aza-tricyclo[30.3.1.04,9]hexatriaconta-16,24,26,28-tetraene-2,3,10,14,20-pentaone]
post-vaccination anti-influenza IgM and IgG levels [1]: did not differ | Percentage of subjects who seroconvert to heterologous strain 4 weeks after seasonal influenza vaccination, A/H1N1 strain: A/New Jersey/8/76 ([2]; RAD001 5 mg weekly): 16% | Percentage of subjects who seroconvert to heterologous strain 4 weeks after seasonal influenza vaccination, A/H1N1 strain: A/New Jersey/8/76 ([2]; RAD001 20 mg weekly): 8% | increase in the HI GMT ratios for the heterologous strain [2, 9]: higher | self-reported energy and exercise ability compared to placebo [3]: increased energy and exercise ability | percentage of PD-1 negative CD4 T cells ([4]; RAD001 cohorts as compared to the placebo cohorts): increased | percentage of CD4 PD-1 positive T cells ([4]; week 6 and 12, all RAD001 cohorts): decreased from baseline | percentage of CD8 PD-1 positive cells ([4]; week 6 and 12, the two lower dose RAD001 cohorts): decreased from baseline | HI GMT, A/H1N1 [5, 10]: 102.8 | HI GMT, A/H1N1 [5, 11]: 84.2 | HI GMT, A/H1N1 [5, 12]: 90.1 | Percent of subjects with seroconversion to influenza 4 weeks after vaccination, H1N1 [5, 13]: 27% | Percent of subjects with seroconversion to influenza 4 weeks after vaccination, H1N1 [5, 14]: 27% | Percent of subjects with seroconversion to influenza 4 weeks after vaccination, H1N1 [5, 15]: 17% | GMT ratio (week 4 post vaccination/baseline), A/H1N1 ([5]; RAD001 0.5 mg daily, N = 50): 2.6 | GMT ratio (week 4 post vaccination/baseline), A/H1N1 ([5]; RAD001 5 mg weekly, N = 49): 2.5 | GMT ratio (week 4 post vaccination/baseline), A/H1N1 ([5]; RAD001 20 mg weekly, N = 49): 1.8 | Percent of subjects with seroconversion to influenza 4 weeks after vaccination, H1N1 [5, 16]: 42% | Percent of subjects with seroconversion to influenza 4 weeks after vaccination, H1N1 [5, 17]: 45% | Percent of subjects with seroconversion to influenza 4 weeks after vaccination, H1N1 [5, 18]: 36% | HI GMT, A/H1N1 [5, 19]: 190.2 | HI GMT, A/H1N1 [5, 20]: 198.73 | HI GMT, A/H1N1 [5, 21]: 129.7 | HI GMT, A/H3N2 [6, 10]: 106.8 | HI GMT, A/H3N2 [6, 11]: 126.04 | HI GMT, A/H3N2 [6, 12]: 137.1 | Percent of subjects with seroconversion to influenza 4 weeks after vaccination, H3N2 [6, 13]: 27% | Percent of subjects with seroconversion to influenza 4 weeks after vaccination, H3N2 [6, 14]: 24% | Percent of subjects with seroconversion to influenza 4 weeks after vaccination, H3N2 [6, 15]: 25% | GMT ratio (week 4 post vaccination/baseline), A/H3N2 ([6]; RAD001 0.5 mg daily, N = 50): 2.1 | GMT ratio (week 4 post vaccination/baseline), A/H3N2 ([6]; RAD001 5 mg weekly, N = 49): 2.0 | GMT ratio (week 4 post vaccination/baseline), A/H3N2 ([6]; RAD001 20 mg weekly, N = 49): 2.1 | Percent of subjects with seroconversion to influenza 4 weeks after vaccination, H3N2 [6, 16]: 64% | Percent of subjects with seroconversion to influenza 4 weeks after vaccination, H3N2 [6, 17]: 53% | Percent of subjects with seroconversion to influenza 4 weeks after vaccination, H3N2 [6, 18]: 71% | HI GMT, A/H3N2 [6, 19]: 194.4 | HI GMT, A/H3N2 [6, 20]: 223.0 | HI GMT, A/H3N2 [6, 21]: 223.0 | Percentage of subjects who seroconvert to heterologous strain 4 weeks after seasonal influenza vaccination, A/H3N2 strain: A/Victoria/361/11 ([7]; RAD001 0.5 mg daily): 38% | Percentage of subjects who seroconvert to heterologous strain 4 weeks after seasonal influenza vaccination, A/H3N2 strain: A/Victoria/361/11 ([7]; RAD001 5 mg weekly, * p-value < 0.05 versus placebo): 39%* | Percentage of subjects who seroconvert to heterologous strain 4 weeks after seasonal influenza vaccination, A/H3N2 strain: A/Victoria/361/11 ([7]; RAD001 20 mg weekly, * p-value < 0.05 versus placebo): 40%* | increase in the HI GMT ratios for the heterologous strain [7, 9]: higher | H3N2 seroconversion rate, heterologous strain ([7]; pooled RAD001 cohorts, versus 20% placebo (p=0.007)): 39% | HI GMT, B [8, 10]: 44.2 | HI GMT, B [8, 11]: 64.8 | Percent of subjects with seroconversion to influenza 4 weeks after vaccination, B [8, 13]: 27% | Percent of subjects with seroconversion to influenza 4 weeks after vaccination, B [8, 14]: 22% | Percent of subjects with seroconversion to influenza 4 weeks after vaccination, B [8, 15]: 19% | GMT ratio (week 4 post vaccination/baseline), B ([8]; RAD001 0.5 mg daily, N = 50): 2.5 | GMT ratio (week 4 post vaccination/baseline), B ([8]; RAD001 5 mg weekly, N = 49): 2.2 | GMT ratio (week 4 post vaccination/baseline), B ([8]; RAD001 20 mg weekly, N = 49): 2.1 | Percent of subjects with seroconversion to influenza 4 weeks after vaccination, B ([8]; Subjects with Baseline Titers <=40, 0.5 mg, * p-value < 0.05 versus placebo): 40* Percent | Percent of subjects with seroconversion to influenza 4 weeks after vaccination, B [8, 17]: 33% | Percent of subjects with seroconversion to influenza 4 weeks after vaccination, B [8, 18]: 28% | HI GMT, B [8, 19]: 98.4 | HI GMT, B [8, 20]: 117.3 | HI GMT, B [8, 21]: 99.2
